Results as given in US20190374627A1, “TARGET PEPTIDES FOR CANCER THERAPY AND DIAGNOSTICS” (priority 2016, published 2019).
Square brackets hold non-standard residues; d marks the D form. Ends that are not written are not given here. Met(O) = CS(=O)CC[C@H](N)C(=O)O; pS = N[C@@H](COP(=O)(O)O)C(=O)O

What was measured:
[1] = tested on: expanded TIL / IHL cultures; assay: ICS for MHC-I-pP reactivity of liver-derived lymphocyte cultures after unspecific rapid expansion protocol (REP); type: cell-based, human
CD8^+ T cells (PBMCs) = assay: Intracellular cytokine staining (ICS) of PBMCs after 7 days of stimulation with MHC-I-pP (healthy donors, HH patients); type: cell-based, human; conditions: for Reactive CD8^+ T cell population, HH2: HH patient HH2; for Reactive CD8^+ T cell population, HH3: HH patient HH3; for Reactive CD8^+ T cell population, HH6: HH patient HH6; for Reactive CD8^+ T cell population, HH8: HH patient HH8; for Reactive CD8^+ T cell population, HD1: Healthy donor HD1; for Reactive CD8^+ T cell population, HD4: Healthy donor HD4; for Reactive CD8^+ T cell population, HD5: Healthy donor HD5
Procedure: From this, CD8^+ T cell responses against newly identified MHC class I-associated phosphopeptides in healthy individuals and patients with chronic liver disease were investigated. Twenty-one of the newly identified HCC-associated HLA-A*0201-restricted phosphopeptides were selected (see Table 17) for further immunological testing in HLA-A*0201 positive patients. MHC-I-pP-specific cytotoxic CD8^+ T cell responses (ppCTL) were assessed using intracellular cytokine staining (ICS) and several cytokines and surface markers were assessed in parallel. After 7 days of stimulation with the respective MHC-I-pP and no other cytokines, CD3- and CD8-expressing T cells were stained for at least two different cytokines (IFN-γ, TNF-α) and when required CD107a expression as a marker for their cytotoxic potential.
First, peripheral blood mononuclear cells (PBMCs) from healthy donors and patients with hereditary hemochromatosis (HH) were analyzed. HH is a chronic liver disease characterized by excessive intestinal absorption of dietary iron resulting in a pathological deposition of iron in the liver. PBMCs or lymphocytes from liver tissue were extracted and specifically stimulated with (phospho-) peptides for 7 days before intracellular cytokine staining (ICS). Doublets and dead cells, using a fixable viability dye, were excluded. Lymphocytes were gated on CD3^+ and CD8^+ double positive cells and were analysed for expression of IFNγ, TNFα-, and CD107a.

[2] = tested on: expanded lymphocyte cultures from deceased donor livers, cirrhotic livers and HCC; assay: ICS for MHC-I-pP reactivity of liver-derived lymphocyte cultures after phosphopeptide-specific expansion; type: cell-based, human; conditions: for ppCTL response, Deceased Donor Liver Do 2 / ppCTL response, Deceased Donor Liver Do 3 / ppCTL response, Deceased Donor Liver Do 4 / ppCTL response, Deceased Donor Liver Do 6 / ppCTL response, End-stage Liver Cirrhosis IHL 11 / ppCTL response, End-stage Liver Cirrhosis IHL 12 / ppCTL response, End-stage Liver Cirrhosis IHL 13 / ppCTL response, End-stage Liver Cirrhosis IHL 15 / ppCTL response, HCC Distal HCC 1 / ppCTL response, HCC Tumor HCC 1 / ppCTL response, HCC Distal HCC 4 / ppCTL response, HCC Distal HCC 9 / ppCTL response, HCC Tumor HCC 9 / ppCTL response, HCC Distal HCC 12: pP-specifically expanded culture; for ppCTL response, HCC Distal HCC 1: HCC 1 Distal; for ppCTL response, HCC Tumor HCC 1: HCC 1 Tumor; for ppCTL response, HCC Distal HCC 4: HCC 4 Distal; for ppCTL response, HCC Distal HCC 9: HCC 9 Distal; for ppCTL response, HCC Tumor HCC 9: HCC 9 Tumor; for ppCTL response, HCC Distal HCC 12: HCC 12 Distal
[3] = tested on: unexpanded lymphocyte cultures (CD8^+ T cells); assay: ICS for MHC-I-pP reactivity of lymphocyte cultures without expansion (Table 23, No Expansion); conditions: HH6

Row | Substance | Reactive CD8^+ T cells, Non-specific Expansion, Do2 [1] | Reactive CD8^+ T cells, Non-specific Expansion, Do4 [1] | Reactive CD8^+ T cells, Non-specific Expansion, HH6 [1] | Reactive CD8^+ T cell population, HH2 (CD8^+ T cells (PBMCs)) | Reactive CD8^+ T cell population, HH3 (CD8^+ T cells (PBMCs)) | Reactive CD8^+ T cell population, HH6 (CD8^+ T cells (PBMCs)) | Reactive CD8^+ T cell population, HH8 (CD8^+ T cells (PBMCs)) | Reactive CD8^+ T cell population, HD1 (CD8^+ T cells (PBMCs)) | Reactive CD8^+ T cell population, HD4 (CD8^+ T cells (PBMCs)) | Reactive CD8^+ T cell population, HD5 (CD8^+ T cells (PBMCs)) | Reactive CD8^+ T cells, pP-specific Expansion, Do2 [2] | Reactive CD8^+ T cells, pP-specific Expansion, Do4 [2] | Reactive CD8^+ T cells, pP-specific Expansion, HH6 [2] | ppCTL response, Deceased Donor Liver Do 2 [2] | ppCTL response, Deceased Donor Liver Do 3 [2] | ppCTL response, Deceased Donor Liver Do 4 [2] | ppCTL response, Deceased Donor Liver Do 6 [2] | ppCTL response, End-stage Liver Cirrhosis IHL 11 [2] | ppCTL response, End-stage Liver Cirrhosis IHL 12 [2] | ppCTL response, End-stage Liver Cirrhosis IHL 13 [2] | further results
1 | RLSsPLHFV: FAM134A phosphopeptide, HLA-A*0201 (RLS[pS]PLHFV; listed as Homo sapiens) | 0 (<0.25% reactive CD8^-+ T cells) | 0 (<0.25% reactive CD8^-+ T cells) | 0 (<0.25% reactive CD8^-+ T cells) | 1 (0.25-2.5% reactive CD8^-+ T cells) | 0 (<0.25% reactive CD8^-+ T cells) | 0 (<0.25% reactive CD8^-+ T cells) | 0 (<0.25% reactive CD8^-+ T cells) | 0 (<0.25% reactive CD8^-+ T cells) | 0 (<0.25% reactive CD8^-+ T cells) | 0 (<0.25% reactive CD8^-+ T cells) | 0 (<0.25% reactive CD8^-+ T cells) | 0 (<0.25% reactive CD8^-+ T cells) | 0 (<0.25% reactive CD8^-+ T cells) | 0 (<0.25% reactive CD8-+ T cells) | 0 (<0.25% reactive CD8-+ T cells) | 0 (<0.25% reactive CD8-+ T cells) | 0 (<0.25% reactive CD8-+ T cells) | 0 (<0.25% reactive CD8-+ T cells) | 0 (<0.25% reactive CD8-+ T cells) | 0 (<0.25% reactive CD8-+ T cells) | Reactive CD8^+ T cell population, HH11 (CD8^+ T cells (PBMCs); HH patient HH11): 0 (<0.25% reactive CD8^-+ T cells); ppCTL response, End-stage Liver Cirrhosis IHL 15 [2]: 0 (<0.25% reactive CD8-+ T cells); ppCTL response, HCC Distal HCC 1 [2]: 0 (<0.25% reactive CD8-+ T cells); ppCTL response, HCC Tumor HCC 1 [2]: 0 (<0.25% reactive CD8-+ T cells); ppCTL response, HCC Distal HCC 4 [2]: 0 (<0.25% reactive CD8-+ T cells); ppCTL response, HCC Distal HCC 9 [2]: 0 (<0.25% reactive CD8-+ T cells); ppCTL response, HCC Tumor HCC 9 [2]: 0 (<0.25% reactive CD8-+ T cells); ppCTL response, HCC Distal HCC 12 [2]: 0 (<0.25% reactive CD8-+ T cells); Reactive CD8^+ T cells, No Expansion, HH6 [3]: 0 (<0.25% reactive CD8^-+ T cells)
2 | KIAsEIAQL: CASKIN2 phosphopeptide, HLA-A*0201 (KIA[pS]EIAQL; listed as Homo sapiens) | 1 (0.25-2.5% reactive CD8^-+ T cells) | 0 (<0.25% reactive CD8^-+ T cells) | 1 (0.25-2.5% reactive CD8^-+ T cells) | 0 (<0.25% reactive CD8^-+ T cells) | 0 (<0.25% reactive CD8^-+ T cells) | 1 (0.25-2.5% reactive CD8^-+ T cells) | 0 (<0.25% reactive CD8^-+ T cells) | 0 (<0.25% reactive CD8^-+ T cells) | 0 (<0.25% reactive CD8^-+ T cells) | 0 (<0.25% reactive CD8^-+ T cells) | 0 (<0.25% reactive CD8^-+ T cells) | 0 (<0.25% reactive CD8^-+ T cells) | 0 (<0.25% reactive CD8^-+ T cells) | 0 (<0.25% reactive CD8-+ T cells) | 0 (<0.25% reactive CD8-+ T cells) | 1 (0.25-2.5% reactive CD8-+ T cells) | 1 (0.25-2.5% reactive CD8-+ T cells) | 0 (<0.25% reactive CD8-+ T cells) | 0 (<0.25% reactive CD8-+ T cells) | 0 (<0.25% reactive CD8-+ T cells) | ppCTL response, End-stage Liver Cirrhosis IHL 15 [2]: 0 (<0.25% reactive CD8-+ T cells); ppCTL response, HCC Distal HCC 1 [2]: 0 (<0.25% reactive CD8-+ T cells); ppCTL response, HCC Tumor HCC 1 [2]: 0 (<0.25% reactive CD8-+ T cells); ppCTL response, HCC Distal HCC 4 [2]: 0 (<0.25% reactive CD8-+ T cells); ppCTL response, HCC Distal HCC 9 [2]: 0 (<0.25% reactive CD8-+ T cells); ppCTL response, HCC Tumor HCC 9 [2]: 0 (<0.25% reactive CD8-+ T cells); ppCTL response, HCC Distal HCC 12 [2]: 0 (<0.25% reactive CD8-+ T cells); Reactive CD8^+ T cells, No Expansion, HH6 [3]: 1 (0.25-2.5% reactive CD8^-+ T cells)
3 | PmVTLsLNL (P[Met(O)]VTL[pS]LNL; listed as Homo sapiens) | 0 (<0.25% reactive CD8^-+ T cells) | 1 (0.25-2.5% reactive CD8^-+ T cells) | 0 (<0.25% reactive CD8^-+ T cells) | 0 (<0.25% reactive CD8^-+ T cells) | 0 (<0.25% reactive CD8^-+ T cells) | 0 (<0.25% reactive CD8^-+ T cells) | 0 (<0.25% reactive CD8^-+ T cells) | 0 (<0.25% reactive CD8^-+ T cells) | 0 (<0.25% reactive CD8^-+ T cells) | 0 (<0.25% reactive CD8^-+ T cells) | 2 (2.5-5.0% reactive CD8^-+ T cells) | 1 (0.25-2.5% reactive CD8^-+ T cells) | 0 (<0.25% reactive CD8^-+ T cells) | 2 (2.5-5.0% reactive CD8-+ T cells) | 0 (<0.25% reactive CD8-+ T cells) | 2 (2.5-5.0% reactive CD8-+ T cells) | 1 (0.25-2.5% reactive CD8-+ T cells) | 0 (<0.25% reactive CD8-+ T cells) | 0 (<0.25% reactive CD8-+ T cells) | 0 (<0.25% reactive CD8-+ T cells) | ppCTL response, End-stage Liver Cirrhosis IHL 15 [2]: 0 (<0.25% reactive CD8-+ T cells); ppCTL response, HCC Distal HCC 1 [2]: 0 (<0.25% reactive CD8-+ T cells); ppCTL response, HCC Tumor HCC 1 [2]: 0 (<0.25% reactive CD8-+ T cells); ppCTL response, HCC Distal HCC 4 [2]: 0 (<0.25% reactive CD8-+ T cells); ppCTL response, HCC Distal HCC 9 [2]: 0 (<0.25% reactive CD8-+ T cells); ppCTL response, HCC Tumor HCC 9 [2]: 0 (<0.25% reactive CD8-+ T cells); ppCTL response, HCC Distal HCC 12 [2]: 0 (<0.25% reactive CD8-+ T cells); Reactive CD8^+ T cells, No Expansion, HH6 [3]: 0 (<0.25% reactive CD8^-+ T cells)
4 | SImsPEIQL: CIC phosphopeptide, HLA-A*0201 (SI[Met(O)][pS]PEIQL; listed as Homo sapiens) | 0 (<0.25% reactive CD8^-+ T cells) | 0 (<0.25% reactive CD8^-+ T cells) | 0 (<0.25% reactive CD8^-+ T cells) | 1 (0.25-2.5% reactive CD8^-+ T cells) | 0 (<0.25% reactive CD8^-+ T cells) | 0 (<0.25% reactive CD8^-+ T cells) | 0 (<0.25% reactive CD8^-+ T cells) | 0 (<0.25% reactive CD8^-+ T cells) | 0 (<0.25% reactive CD8^-+ T cells) | 0 (<0.25% reactive CD8^-+ T cells) | 0 (<0.25% reactive CD8^-+ T cells) | 0 (<0.25% reactive CD8^-+ T cells) | 2 (2.5-5.0% reactive CD8^-+ T cells) | 0 (<0.25% reactive CD8-+ T cells) | 0 (<0.25% reactive CD8-+ T cells) | 0 (<0.25% reactive CD8-+ T cells) | 0 (<0.25% reactive CD8-+ T cells) | 0 (<0.25% reactive CD8-+ T cells) | 0 (<0.25% reactive CD8-+ T cells) | 0 (<0.25% reactive CD8-+ T cells) | ppCTL response, End-stage Liver Cirrhosis IHL 15 [2]: 0 (<0.25% reactive CD8-+ T cells); ppCTL response, HCC Distal HCC 1 [2]: 0 (<0.25% reactive CD8-+ T cells); ppCTL response, HCC Tumor HCC 1 [2]: 0 (<0.25% reactive CD8-+ T cells); ppCTL response, HCC Distal HCC 4 [2]: 0 (<0.25% reactive CD8-+ T cells); ppCTL response, HCC Distal HCC 9 [2]: 0 (<0.25% reactive CD8-+ T cells); ppCTL response, HCC Tumor HCC 9 [2]: 0 (<0.25% reactive CD8-+ T cells); ppCTL response, HCC Distal HCC 12 [2]: 0 (<0.25% reactive CD8-+ T cells); Reactive CD8^+ T cells, No Expansion, HH6 [3]: 0 (<0.25% reactive CD8^-+ T cells)
